Our source for the IC50 values is patent US10590079B2, “Cyano-substituted indoles as LSD1 inhibitors” (Novartis AG, priority 2016, dated 2020).

As a reminder, the IC50 is the concentration that gives 50% inhibition.

One experiment deals with T1, full-length LSD1 (Homo sapiens, UniProt O60341).
T1 construct: the full-length LSD1 and 0.5 μM FAD in reaction buffer
The experiment in a line: FL-LSD1 LC-MS assay. The experiment is classed as biochemical. As to conditions: 0.4 nM FL-LSD1, 0.25 μM FAD, 0.5 μM H3K4me1 peptide, 60 min; read-out: (a) IC50 LC-MS Qualified assay. The procedure:
Representative compounds of the present invention were serially and separately diluted 3-fold in DMSO to obtain a total of twelve concentrations. […] A 5 μL solution of 1 μM of the peptide substrate H3K4me1 (histone H3[1-21]-biotin) in reaction buffer was added to each initiate reaction. […] The conversion ratio of H3K4me1 substrate to the H3K4me0 product was calculated by dividing the peak area of the H3K4me0 peptide by the total peak area of all those two peptides on the assumption that the ionization efficiency of those peptides is the same. The data were then fit to a dose response equation using the program Helios to get the IC50 values of the test compound.

The test system of a further experiment is Molm13 cell. The experiment in a line: Anti-proliferation assay in Molm13 cell. To be noted: 6 days, cell titer glow, read-out: (b) IC50 anti proliferative assay in molm13 cell. The experiment is classed as cell-based, human. The procedure:
Anti-Proliferation Assay in Molm13 Cell
After cell seeding, a compound of the present invention was added to the cell media (in concentrations ranging from 0 to 100 μM, 3× dilution series). After 6 days, 100 ul/well cell titer glow (Promega, cat#G7573) was added into the cell culture, and luminerence was read on Envision (Pelkin Elmer) to determine the viable cells. The percentage inhibition was calculated against the samples treated with DMSO.
(ATP-based viability assays read luminescence as a measure of living cells.)

In a further experiment the test system is CD11b. The experiment in a line: CD11b FACS assay. The experiment is classed as cell-based. As to conditions: Homo sapiens, THP-1; Thp1 cell, 96 hrs; read-out: (c) IC50 CD11b FACS assay. The procedure:
Representative compounds of the present invention were serially and separately diluted 5-fold in DMSO to obtain a total of 6 concentrations. Then the compounds were added to Thp1 cell cultured in 96-well round bottom plate (Costar, Cat#3099) at 1:1000 dilution to obtain the highest concentration of 10 μM. The cells were further cultured for 96 hrs before FACS procedure.
FACS protocol: FACS was performed using standard flowcytometry. Cell was collected and washed with FACS buffer twice (2% heat inactivated FBS in PBS) in 96-well plate, and stained with antibody against CD11b, or isotype control, then washed with FACS buffer for 3 times before reading on Guava 8HT (Merck Millipore) Results were analyzed using Flowjo, and mean fluoreance was calculated and normalized to the cells treated with DMSO. The fold value were then analyzed via Graphpad Prism and fit to a dose response curve to get IC50 value of the test compound. Antibodies for FACS: PE mouse IgG1 k chain (BD Bioscience, #555749), PE mouse anti human CD11b (BD Bioscience, #555388)

Where two headings read alike, the source gives them in different places.

For `Cc1c(N)cccc1-c1cn(C2CCC(O)C2)c2ccc(C#N)cc12` (racemic) [Example 80, Trans-3-(3-amino-2-methylphenyl)-1-(3-hydroxycyclopentyl)-1H-indole-5-carbonitrile], the concentration for half-maximal inhibition (IC50) at full-length LSD1 was found to be 24 nM; in the experiment with Molm13 cell (Homo sapiens, MOLM-13, 144 h) it was 390 nM.
For `Cc1cc2c(cc1C#N)c(-c1cncc(N)c1C)cn2C1CCC(O)C1` (single isomer, unassigned) [Example 87, Cis-3-(5-amino-4-methylpyridin-3-yl)-1-(3-hydroxycyclopentyl)-6-methyl-1H-indole-5-carbonitrile], the IC50 on full-length LSD1 turned out to be 15 nM; in the experiment on Molm13 cell (Homo sapiens, MOLM-13, 144 h), 76 nM.
`Cc1cc2c(cc1C#N)c(-c1cncc(N)c1C)cn2C1CCC(O)C1` (single isomer, unassigned) [Example 88, Trans-3-(5-amino-4-methylpyridin-3-yl)-1-(3-hydroxycyclopentyl)-6-methyl-1H-indole-5-carbonitrile]: the IC50 on full-length LSD1 was found to be 15 nM; in the experiment with Molm13 cell, 90 nM.
For the molecule `COc1ccc(-n2cc(-c3cccc(N)c3C)c3cc(C#N)c(C)cc32)cc1` [Example 65, 3-(3-amino-2-methylphenyl)-1-(4-methoxyphenyl)-6-methyl-1H-indole-5-carbonitrile], the half-inhibitory concentration (IC50) in the experiment with CD11b came out at 315 nM; at full-length LSD1, 3 nM; in the experiment on Molm13 cell (Homo sapiens, MOLM-13, 144 h) it was 123 nM.
With `COc1ccc(-n2cc(-c3cncc(N)c3C)c3cc(C#N)c(C)cc32)cc1` [Example 71, 3-(5-amino-4-methylpyridin-3-yl)-1-(4-methoxyphenyl)-6-methyl-1H-indole-5-carbonitrile], the half-maximal inhibitory concentration (IC50) in the experiment with CD11b is 801 nM; at full-length LSD1, 3 nM; in the experiment on Molm13 cell (Homo sapiens, MOLM-13, 144 h), 51 nM.
As to `CN[C@H]1CC[C@H](n2cc(-c3cccc(N)c3C)c3cc(C#N)c(C)cc32)CC1` [Example 78, Trans-3-(3-amino-2-methylphenyl)-6-methyl-1-(4-(methylamino)cyclohexyl)-1H-indole-5-carbonitrile], in the experiment with Molm13 cell (Homo sapiens, MOLM-13, 144 h), the IC50 is 29 nM.
Turning to `Cc1c(N)cccc1-c1cn(C2CCCC(O)C2)c2ccc(C#N)cc12` (stereo not drawn) [Example 83, Trans-3-(3-amino-2-methylphenyl)-1-(3-hydroxycyclohexyl)-1H-indole-5-carbonitrile], the IC50 at full-length LSD1 is 60 nM; in the experiment with Molm13 cell (Homo sapiens, MOLM-13, 144 h) it was 270 nM.
`Cc1cc2c(cc1C#N)c(-c1cccc(N)c1C)cn2[C@H]1CC[C@H](O)CC1` [Example 93, Trans-3-(3-amino-2-methylphenyl)-1-(4-hydroxycyclohexyl)-6-methyl-1H-indole-5-carbonitrile]: the IC50 with CD11b amounted to 73 nM.
In the case of `Cc1cc2c(cc1C#N)c(-c1cncc(N)c1C)cn2[C@H]1CC[C@H](O)CC1` [Example 94, Trans-3-(5-amino-4-methylpyridin-3-yl)-1-(4-hydroxycyclohexyl)-6-methyl-1H-indole-5-carbonitrile], the IC50 came out at 16 nM at full-length LSD1 and 73 nM in the experiment on Molm13 cell (Homo sapiens, MOLM-13, 144 h).
In the case of `Cc1cc2c(cc1C#N)c(-c1cccc(N)c1C)cn2[C@H]1CC[C@@H](O)CC1` [Example 95, Cis-3-(3-amino-2-methylphenyl)-1-(4-hydroxycyclohexyl)-6-methyl-1H-indole-5-carbonitrile], the IC50 in the experiment on Molm13 cell (Homo sapiens, MOLM-13, 144 h) was determined as 49 nM.
Regarding `Cc1cc2c(cc1C#N)c(-c1cccc(N)c1C)cn2C1CCNCC1` [Example 97, 3-(3-amino-2-methylphenyl)-6-methyl-1-(piperidin-4-yl)-1H-indole-5-carbonitrile], the IC50 on full-length LSD1 amounted to 14 nM; in the experiment with Molm13 cell (Homo sapiens, MOLM-13, 144 h), 926 nM.
Turning to `Cc1cc2c(cc1C#N)c(-c1cccc(N)c1C)cn2[C@H]1C[C@H](O)C1` [Example 100, Trans-3-(3-amino-2-methylphenyl)-1-(3-hydroxycyclobutyl)-6-methyl-1H-indole-5-carbonitrile], in the experiment on Molm13 cell (Homo sapiens, MOLM-13, 144 h), the IC50 came out at 48 nM.
